Earlier results in patent US20260001860A1, “METHODS AND COMPOSITIONS OF INHIBITING DCN1-UBC12 INTERACTION” (University of Kentucky Research Foundation, priority 2022, published 2026).

Conditions: patient population taking either proteasome inhibitor

SMILES	patient population exhibiting grade 3 hematologic adverse events (thrombocytopenia and neutropenia) [%]	patients suffering grade 4 adverse events (potentially life-threatening) [%]
CC(C)C[C@H](NC(=O)[C@H](Cc1ccccc1)NC(=O)c1cnccn1)B(O)O [bortezomib]	50	~15
CC(C)C[C@H](NC(=O)[C@H](CCc1ccccc1)NC(=O)CN1CCOCC1)C(=O)N[C@@H](Cc1ccccc1)C(=O)N[C@@H](CC(C)C)C(=O)[C@@]1(C)CO1 [carfilzomib]	50	~15
